The target in test [1] is T1, h-GABA-A α5β3γ2 (Homo sapiens (Human), UniProt P18507+P31644). In words: Two-electrode voltage clamp electrophysiology in Xenopus oocytes expressing GABAA receptors, modulation of GABA EC20 current. It counts as cell-based. Conditions: for Efficacy (GABA) %: % modulation of GABA EC20 = 100*(Fold increase−1); for Efficacy (GABA) % / Fold increase h-GABA-A α5β3γ2 oocyte: Xenopus oocytes; for Fold increase h-GABA-A α5β3γ2 oocyte: GABA EC20, test compound at approx. 30 fold its Ki. On the procedure:
Xenopus laevis oocytes at maturation stages V-VI were used for the expression of cloned mRNA encoding GABAA receptor subunits. Oocytes ready for RNA micro-injection were bought from Ecocyte, Castrop-Rauxel, Germany and stored in modified Barth's medium (composition in mM: NaCl 88, KCl 1, NaHCO32.4, HEPES 10, MgSO4 0.82, CaNO3 0.33, CaCl2) 0.33, pH=7.5) at 20° C. until the experiment.
Oocytes were plated in 96-well plates to be used in an automated instrument (Robo-ocyte, MultiChannelSystems, Reutlingen, Germany) for microinjection and electrophysiological recordings. Approximately 50 nl of an aqueous solution containing the RNA transcripts for the subunits of the desired GABAA receptor was injected into each oocyte. RNA concentrations ranged between 0.3 and 16 ng/μl/subunit and were adjusted in pilot experiments to obtain GABA responses of a suitable size and a maximal effect of the reference modulator, Beta-CCM (β-CCM), a betacarboline negative allosteric modulator (NAM) at the GABAA receptor benzodiazepine (BZD) binding site or Midazolam, a benzodiazepine positive allosteric modulator (PAM) at the GABAA receptor benzodiazepine (BZD) binding site. The concentration of the γ2 subunit encoding RNA usually was 5-to 10-fold higher than the RNAs encoding the other subunits. Oocytes were kept in modified Barth's medium (composition in mM: NaCl 88, KCl 1, NaHCO3 4, HEPES 10, MgSO4 0.82, CaNO3 0.33, CaCl2 0.33, pH=7.5) at 20° C. until the experiment.
Electrophysiological experiments were performed on days 3 to 5 after the micro-injection of mRNA. During the experiment the oocytes were constantly superfused by a solution containing (in mM) NaCl 90, KCl 1, HEPES 5, MgCl2 1, CaCl2 1 (pH 7.4). Oocytes were impaled by two glass microelectrodes (resistance: 0.4 MΩ) which were filled with a solution containing KCl 1M+K-acetate 1.5 M and voltage-clamped to −80 mV. The recordings were performed at room temperature using the Roboocyte two-electrode voltage clamp system (Multichannelsystem). After an initial equilibration period of 1.5 min GABA was added for 1.5 min at a concentration evoking approximately 20% of a maximal current response (EC20). After another rest interval of 2.5 min GABA was again added evoking a response of similar amplitude and shape. […] Current traces were recorded at a digitization rate of 10 Hz during and shortly before and after the GABA application.
Each compound and concentration was tested on at least 3 oocytes.
For the analysis, the digitized current traces of the first and second GABA response were superimposed and, if necessary, rescaled to equal maximal amplitudes. The ratio between the two responses during the time interval of test compound application was calculated point by point. The extremum of the resulting “ratio trace” was taken as the efficacy (“Fold increase”) of the compound expressed as “% modulation of GABA EC20” (100*(Fold increase−1)).
(In general: In two-electrode clamp one electrode senses voltage and the other passes current.)

The target of test [2] is T1, h-GABA-A α5β3γ2. In words: [3H]flumazenil competition binding assay, membranes of HEK293 cells expressing human GABAA receptors. The conditions noted are these: displacement of [3H]flumazenil 0.5 nM, HEK293 cells expressing human receptors, mean of two determinations; read-out: Ki h-GABA-A α5β3γ2. The method, then:
The affinity of compounds at GABAA receptor subtypes was measured by competition for [3H]flumazenil (85 Ci/mmol; Roche) binding to HEK293 cells expressing rat (stably transfected) or human (transiently transfected) receptors of composition α1β3γ2, α2β3γ2, α3β3γ2 and α5β3γ2.
Cell pellets were suspended in Krebs-tris buffer (4.8 mM KCl, 1.2 mM CaCl2, 1.2 mM MgCl2, 120 mM NaCl, 15 mM Tris; pH 7.5; binding assay buffer), homogenized by polytron for ca. 20 sec on ice and centrifuged for 60 min at 4° C. (50000 g; Sorvall, rotor: SM24=20000 rpm). The cell pellets were resuspended in Krebs-tris buffer and homogenized by polytron for ca. 15 sec on ice. Protein was measured (Bradford method, Bio-Rad) and aliquots of 1 mL were prepared and stored at −80° C.
Assays were incubated to equilibrium for 1 hour at 4° C. and harvested onto GF/C uni-filters (Packard) by filtration using a Packard harvester and washing with ice-cold wash buffer (50 mM Tris; pH 7.5). After drying, filter-retained radioactivity was detected by liquid scintillation counting. Ki values were calculated using Excel-Fit (Microsoft) and are the means of two determinations.

Where [3] appears, read: positive control, maximally effective concentration, 3-6 oocytes per plate.

One may read the Ki as the dissociation constant of the complex between target and ligand, obtained from inhibition or displacement.

In the case of `Cc1ccc(-c2nocc2COc2ccc(C(=O)NC3CCOCC3)cn2)cn1` [Example 44, 6-((3-(6-methyl-3-pyridyl)isoxazol-4-yl)methoxy)-N-tetrahydropyran-4-yl-pyridine-3-carboxamide], on h-GABA-A α5β3γ2 [1], the “Efficacy (GABA) %” value came to 54%.

For the compound `Cc1ccc(-c2noc(C)c2COc2ccc(C(=O)N[C@@H]3CCOC[C@@H]3C)nn2)cn1` [Example 52, 6-((5-methyl-3-(6-methylpyridin-3-yl)isoxazol-4-yl)methoxy)-N-((3R,4R)-3-methyltetrahydropyran-4-yl)pyridazine-3-carboxamide], the inhibition constant (Ki) on h-GABA-A α5β3γ2 [2] worked out at 28.9 nM. At h-GABA-A α5β3γ2 [1], the “Efficacy (GABA) %” value is given as 67% and the “Fold increase h-GABA-A α5β3γ2 oocyte” value came out at 1.67.

Consider `Cc1ccc(-c2noc(C)c2COc2ccc(C(=O)NCC(C)C)nn2)cn1` [Example 39, N-isobutyl-6-((5-methyl-3-(6-methylpyridin-3-yl)isoxazol-4-yl)methoxy)pyridazine-3-carboxamide], for which the inhibitory constant (Ki) on h-GABA-A α5β3γ2 [2] was determined as 14.6 nM. Further, at h-GABA-A α5β3γ2 [1], the “Efficacy (GABA) %” value came out at 89% and the “Fold increase h-GABA-A α5β3γ2 oocyte” value was found to be 1.89.

As for `Cc1ccc(-c2noc(C)c2COc2ccc(C(=O)N[C@@H]3CCCC(F)(F)[C@H]3O)cn2)cn1` [Example 131, N-((1R,2S)-3,3-difluoro-2-hydroxycyclohexyl)-6-((5-methyl-3-(6-methylpyridin-3-yl)isoxazol-4-yl)methoxy)pyridine-3-carboxamide], the Ki on h-GABA-A α5β3γ2 [2] turned out to be 26 nM. At h-GABA-A α5β3γ2 [1], the “Efficacy (GABA) %” value worked out at 51% and the “Fold increase h-GABA-A α5β3γ2 oocyte” value is listed as 1.51.

On to `Cc1ccc(-c2noc(CF)c2COc2ccc(C(=O)NC3CCOCC3)nn2)nn1` [Example 192, 6-((5-(fluoromethyl)-3-(6-methylpyridazin-3-yl)isoxazol-4-yl)methoxy)-N-(tetrahydropyran-4-yl)pyridazine-3-carboxamide], for which, on h-GABA-A α5β3γ2 [2], the Ki stood at 3 nM. Besides, at h-GABA-A α5β3γ2 [1], the “Efficacy (GABA) %” value was 56% and the “Fold increase h-GABA-A α5β3γ2 oocyte” value worked out at 1.56.

For `Cc1ccc(-c2noc(C)c2COc2ccc(C(=O)NC3(C)CCC3)nn2)cn1` [Example 118, 6-((5-methyl-3-(6-methylpyridin-3-yl)isoxazol-4-yl)methoxy)-N-(1-methylcyclobutyl)pyridazine-3-carboxamide], on h-GABA-A α5β3γ2 [2], the Ki was 12.3 nM. Also, at h-GABA-A α5β3γ2 [1], the “Efficacy (GABA) %” value is recorded as 88% and the “Fold increase h-GABA-A α5β3γ2 oocyte” value is listed as 1.88.

As for `Cc1ncc2n1-c1ccc(Cl)cc1C(c1ccccc1F)=NC2` [Midazolam, reference compound], on h-GABA-A α5β3γ2 [1] (setting [3]), the Fold increase was around 2.5 and the “potentiation of the GABA-induced current” value is on record as around 150%.

On to `COC(=O)c1cc2c(cn1)[nH]c1ccccc12` [β-CCM, Beta-CCM, reference compound], for which, on h-GABA-A α5β3γ2 [1] (setting [3]), the Fold increase is around 0.5 and the “inhibition of the GABA-evoked current” value is around 50%.

Take `Cc1ccc(-c2noc(C)c2COc2ccc(C(=O)NC(C)(C)CCS(C)(=O)=O)nn2)cn1` [Example 80, 6-((5-methyl-3-(6-methylpyridin-3-yl)isoxazol-4-yl)methoxy)-N-(2-methyl-4-(methylsulfonyl)butan-2-yl)pyridazine-3-carboxamide]: at h-GABA-A α5β3γ2 [1], the “Efficacy (GABA) %” value turned out to be 108% and the “Fold increase h-GABA-A α5β3γ2 oocyte” value was determined as 2.08.

As for `Cc1ccc(-c2noc(C)c2COc2ccc(C(=O)NC3CCOC(C)(C)C3)nn2)cn1` (racemic) [Example 58, (RS)—N-(2,2-dimethyltetrahydropyran-4-yl)-6-((5-methyl-3-(6-methylpyridin-3-yl)isoxazol-4-yl)methoxy)pyridazine-3-carboxamide], at h-GABA-A α5β3γ2 [1], the “Efficacy (GABA) %” value is given as 71% and the “Fold increase h-GABA-A α5β3γ2 oocyte” value came out at 1.71.

For the compound `Cc1ccc(-c2noc(C)c2COc2ccc(C(=O)NC3(C)CCOC3)nn2)cn1` (racemic) [Example 75], on h-GABA-A α5β3γ2 [1], the “Efficacy (GABA) %” value stood at 89% and the “Fold increase h-GABA-A α5β3γ2 oocyte” value came to 1.89.

Consider `Cc1ccc(-c2noc(C)c2COc2ccc(C(=O)NC3CCS(=O)(=O)C3)nn2)cn1` (racemic) [Example 36, (RS)—N-(1,1-dioxothiolan-3-yl)-6-((5-methyl-3-(6-methylpyridin-3-yl)-1,2-oxazol-4-yl)methoxy)pyridazine-3-carboxamide], for which, on h-GABA-A α5β3γ2 [1], the “Efficacy (GABA) %” value worked out at 65% and the “Fold increase h-GABA-A α5β3γ2 oocyte” value was 1.65.

Consider `O=C(N[C@H]1CCOC1)c1ccc(OCc2c(-c3ccc(Cl)nc3)noc2C2CC2)nn1` [Example 179, (S)-6-((3-(6-chloropyridin-3-yl)-5-cyclopropylisoxazol-4-yl)methoxy)-N-(tetrahydrofuran-3-yl)pyridazine-3-carboxamide], for which the “Efficacy (GABA) %” value at h-GABA-A α5β3γ2 [1] was determined as 82%.

As for `Cc1onc(-c2ccc(Cl)nc2)c1COc1ccc(C(=O)N[C@H]2CCOC2)nn1` [Example 160, (S)-6-((3-(6-chloropyridin-3-yl)-5-methylisoxazol-4-yl)methoxy)-N-(tetrahydrofuran-3-yl)pyridazine-3-carboxamide], the “Efficacy (GABA) %” value at h-GABA-A α5β3γ2 [1] is listed as 42%.

With `Cc1ccc(-c2noc(C)c2COc2ccc(C(=O)NC3CCOC3)nn2)cn1` (racemic) [Example 45, (RS)-6-((5-methyl-3-(6-methylpyridin-3-yl)isoxazol-4-yl)methoxy)-N-(tetrahydrofuran-3-yl)pyridazine-3-carboxamide], on h-GABA-A α5β3γ2 [1], the “Efficacy (GABA) %” value is 84% and the “Fold increase h-GABA-A α5β3γ2 oocyte” value was 1.84.

With `Cc1ccc(-c2noc(C)c2COc2ccc(C(=O)N[C@@H]3CC[C@@H](O)C3)nn2)cn1` (racemic) [Example 152, N-((1RS,3RS)-3-hydroxycyclopentyl)-6-((5-methyl-3-(6-methylpyridin-3-yl)isoxazol-4-yl)methoxy)pyridazine-3-carboxamide], at h-GABA-A α5β3γ2 [1], the “Efficacy (GABA) %” value is listed as 85% and the “Fold increase h-GABA-A α5β3γ2 oocyte” value is listed as 1.85.

In the case of `Cc1ccc(-c2noc(C)c2COc2ccc(C(=O)N3C[C@@H]4C[C@H]3CO4)nn2)cn1` [Example 151, (1S,4S)-2-oxa-5-azabicyclo[2.2.1]heptan-5-yl(6-((5-methyl-3-(6-methylpyridin-3-yl)isoxazol-4-yl)methoxy)pyridazin-3-yl)methanone], at h-GABA-A α5β3γ2 [1], the “Efficacy (GABA) %” value worked out at 68%.

In the case of `CO[C@@H]1CC[C@@H](NC(=O)c2ccc(OCc3c(-c4ccc(C)nc4)noc3C)nn2)C1` (racemic) [Example 166, trans-N-((1RS,3RS)-3-methoxycyclopentyl)-6-((5-methyl-3-(6-methylpyridin-3-yl)isoxazol-4-yl)methoxy)pyridazine-3-carboxamide], at h-GABA-A α5β3γ2 [1], the “Efficacy (GABA) %” value was determined as 70% and the “Fold increase h-GABA-A α5β3γ2 oocyte” value was found to be 1.7.

With `Cc1ccc(-c2noc(C)c2COc2ccc(C(=O)NC(C)C(F)(F)F)nn2)cn1` (racemic) [Example 34, (RS)-6-((5-methyl-3-(6-methylpyridin-3-yl)isoxazol-4-yl)methoxy)-N-(1,1,1-trifluoropropan-2-yl)pyridazine-3-carboxamide], at h-GABA-A α5β3γ2 [1], the “Efficacy (GABA) %” value worked out at 84% and the “Fold increase h-GABA-A α5β3γ2 oocyte” value turned out to be 1.84.

`Cc1ccc(-c2noc(C)c2COc2ccc(C(=O)NC3CCCOCC3)nn2)cn1` (racemic) [Example 187, (RS)-6-((5-methyl-3-(6-methylpyridin-3-yl)isoxazol-4-yl)methoxy)-N-(oxepan-4-yl)pyridazine-3-carboxamide]: on h-GABA-A α5β3γ2 [1], the “Efficacy (GABA) %” value came out at 88% and the “Fold increase h-GABA-A α5β3γ2 oocyte” value came to 1.88.

Values taken from US20240279218A1 (Hoffmann-La Roche Inc., priority 2016, published 2024).
